Measurements published in patent US20260022142A1, “MACROCYCLIC IMMUNOMODULATORS” (Bristol-Myers Squibb Company, priority 2022, published 2026).
Numbered stars: 1 amine (or outer) side, 2 acyl side, 3 side chain; on linkers, the order of the positions; unused ones are H or OH. Bridge positions count the residues as written; N and C are the ends. Square brackets hold non-standard residues; d marks the D form. Peptide text beside a SMILES is read from it. * marks the point of attachment. ξ: configuration not given here. X2 = CC(C)C[C@H](N[*:1])C(=O)C[C@H](C(=O)[*:2])C(C)C; Phe(4-COOH) = N[C@@H](Cc1ccc(C(=O)O)cc1)C(=O)O; Bip = N[C@@H](Cc1ccc(-c2ccccc2)cc1)C(=O)O; βAsp = O=C(O)[C@H](CC(=O)[*:2])N[*:1]; Bta = N[C@@H](Cc1csc2ccccc12)C(=O)O; hArg = N=C(N)NCCCC[C@H](N)C(=O)O; 4Pal = N[C@@H](Cc1ccncc1)C(=O)O; Cha = N[C@@H](CC1CCCCC1)C(=O)O; Ile(3ξ) = CCC(C)[C@H](N)C(=O)O; Thr(3ξ) = CC(O)[C@H](N)C(=O)O; 12Ado = NCCCCCCCCCCCC(=O)O; dOrn = NCCC[C@@H](N)C(=O)O; dDab = NCC[C@@H](N)C(=O)O; Carboxymethyl = O=C(O)C*; Orn = NCCC[C@H](N)C(=O)O; Aun = NCCCCCCCCCCC(=O)O; Dab = NCC[C@H](N)C(=O)O; AEEA = NCCOCCOCC(=O)O

Target: T1, PD-1/PD-L1 interaction (PE-labeled human PD-L1-Ig binding to Jurkat cell line over-expressing human PD-1) (Homo sapiens, UniProt Q15116)
T1 construct: expressed in transfected cells; host or cells: Jurkat
T1 sequence (Q15116 25-288): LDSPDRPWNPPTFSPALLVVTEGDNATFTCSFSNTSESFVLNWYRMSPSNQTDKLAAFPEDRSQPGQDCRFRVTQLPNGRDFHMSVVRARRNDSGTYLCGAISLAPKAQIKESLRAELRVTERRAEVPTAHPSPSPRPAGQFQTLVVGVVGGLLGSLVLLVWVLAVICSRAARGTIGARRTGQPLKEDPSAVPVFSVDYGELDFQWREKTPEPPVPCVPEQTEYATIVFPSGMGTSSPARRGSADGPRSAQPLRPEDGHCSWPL
Test: Jurkat-PD-1 Cell Binding High-Content Screening Assay (CBA)
Type: cell-based
Settings: Jurkat cell line over-expressing human PD-1; PE-labeled PD-L1-Ig 20 nM final; read-out: Jurkat hPD1-PDL1 IC50
In short: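 Jurkat cells stably over-expressing human PD-1 were seeded in DMEM with 10% fetal calf serum and pre-incubated with compound for 2 h at 37° C. PE-labeled human PD-L1-Ig was then added at 20 nM final for 1 hour, after which cells were fixed with paraformaldehyde, Hoechst-stained and imaged by high-content microscopy.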

Structure (SMILES)	IC50 [nM]
CC(C)C[C@H]1NC(=O)[C@H](CCCN)NC(=O)[C@H](Cc2c[nH]cn2)NC(=O)[C@H](Cc2ccc(-c3ccccc3)cc2)NC(=O)[C@H](C(C)C)NC(=O)[C@H](Cc2c[nH]c3ccccc23)NC(=O)[C@H](CC(=O)O)NC(=O)[C@H](Cc2ccc(OCC(=O)O)cc2)NC(=O)[C@H](C(C)O)NC(=O)CSC[C@@H](C(=O)N[C@@H](CC(=O)NCCOCCOCC(=O)N[C@@H](CCCN)C(=O)NCCCCCCCCCCC(=O)O)C(=O)O)NC(=O)[C@H](CO)NC(=O)[C@H](C(C)C)NC(=O)[C@H](CC2CCCCC2)NC(=O)[C@H](CCN)NC1=O (stereo partly drawn) [Compound 3056] ({CH2CO}-[Thr(3ξ)]Y(Carboxymethyl)DWV[Bip]H[Orn][dL][Dab][Cha]VSC[βAsp][AEEA][Orn][Aun]-OH; thioether N-14)	17.7
CC(C)C[C@H]1NC(=O)[C@H](CCCN)NC(=O)[C@H](Cc2c[nH]cn2)NC(=O)[C@H](Cc2ccc(-c3ccccc3)cc2)NC(=O)[C@H](C(C)C)NC(=O)[C@H](Cc2c[nH]c3ccccc23)NC(=O)[C@H](CC(=O)O)NC(=O)[C@H](Cc2ccc(OCC(=O)O)cc2)NC(=O)[C@H](Cc2ccccc2)NC(=O)CSC[C@@H](C(=O)N[C@@H](CCCN)C(=O)NCCOCCOCC(=O)NCCCCCCCCCCC(=O)O)NC(=O)[C@H](CO)NC(=O)[C@H](C(C)C)NC(=O)[C@H](CC2CCCCC2)NC(=O)[C@H](CCN)NC1=O [Compound 3057] ({CH2CO}-FY(Carboxymethyl)DWV[Bip]H[Orn][dL][Dab][Cha]VSC[Orn][AEEA][Aun]-OH; thioether N-14)	53.9
CCC(C)[C@@H]1NC(=O)[C@H](Cc2ccc(-c3ccccc3)cc2)NC(=O)[C@H](C(C)C)NC(=O)[C@H](Cc2c[nH]c3ccccc23)NC(=O)[C@H](CC(=O)O)NC(=O)[C@H](Cc2ccc(C(=O)O)cc2)NC(=O)[C@H](Cc2ccncc2)NC(=O)CSC[C@@H](C(=O)N[C@H](CC(N)=O)C(=O)NCCOCCOCC(=O)N[C@@H](CCCN)C(=O)NCCCCCCCCCCC(=O)O)NC(=O)[C@H](CO)NC(=O)[C@H](C(C)C)NC(=O)[C@H](CC2CCCCC2)NC(=O)[C@H](CCN)NC(=O)[C@@H](CC(C)C)NC(=O)[C@H](CCCN)NC1=O (stereo partly drawn) [Compound 3058] ({CH2CO}-[4Pal][Phe(4-COOH)]DWV[Bip][Ile(3ξ)][Orn][dL][Dab][Cha]VSC[dN][AEEA][Orn][Aun]-OH; thioether N-14)	13
CCC(C)[C@@H]1NC(=O)[C@H](Cc2ccc(-c3ccccc3)cc2)NC(=O)[C@H](C(C)C)NC(=O)[C@H](Cc2c[nH]c3ccccc23)NC(=O)[C@H](CC(=O)O)NC(=O)[C@H](Cc2ccc(C(=O)O)cc2)NC(=O)[C@H](Cc2ccncc2)NC(=O)CSC[C@@H](C(=O)N[C@H](CO)C(=O)NCCOCCOCC(=O)N[C@@H](CCCN)C(=O)NCCCCCCCCCCC(=O)O)NC(=O)[C@H](CO)NC(=O)[C@H](C(C)C)NC(=O)[C@H](CC2CCCCC2)NC(=O)[C@H](CCN)NC(=O)[C@@H](CC(C)C)NC(=O)[C@H](CCCN)NC1=O (stereo partly drawn) [Compound 3059] ({CH2CO}-[4Pal][Phe(4-COOH)]DWV[Bip][Ile(3ξ)][Orn][dL][Dab][Cha]VSC[dS][AEEA][Orn][Aun]-OH; thioether N-14)	12.2
CCC(C)[C@@H]1NC(=O)[C@H](Cc2ccc(-c3ccccc3)cc2)NC(=O)[C@H](C(C)C)NC(=O)[C@H](Cc2c[nH]c3ccccc23)NC(=O)[C@H](CC(=O)O)NC(=O)[C@H](Cc2ccc(OCC(=O)O)cc2)NC(=O)[C@H](CCCCNC(=N)N)NC(=O)CSC[C@@H](C(=O)N[C@H](CO)C(=O)NCCOCCOCC(=O)NCCCCCCCCCCC(=O)O)NC(=O)[C@H](CO)NC(=O)[C@H](C(C)C)NC(=O)[C@H](CC2CCCCC2)NC(=O)[C@H](CCN)NC(=O)[C@@H](CC(C)C)NC(=O)[C@H](CCCN)NC1=O (stereo partly drawn) [Compound 3060] ({CH2CO}-[hArg]Y(Carboxymethyl)DWV[Bip][Ile(3ξ)][Orn][dL][Dab][Cha]VSC[dS][AEEA][Aun]-OH; thioether N-14)	17.8
CC(C)C[C@H]1NC(=O)[C@H](CCCN)NC(=O)[C@H](CCC(=O)O)NC(=O)[C@H](Cc2ccc(-c3ccccc3)cc2)NC(=O)[C@H](C(C)C)NC(=O)[C@H](Cc2c[nH]c3ccccc23)NC(=O)[C@H](CC(=O)O)NC(=O)[C@H](Cc2ccc(C(=O)O)cc2)NC(=O)[C@H](Cc2ccc(OCC(=O)O)cc2)NC(=O)CSC[C@@H](C(=O)NCC(=O)NCCOCCOCC(=O)N[C@@H](CCCN)C(=O)NCCCCCCCCCCCC(=O)O)NC(=O)[C@H](CO)NC(=O)[C@H](C(C)C)NC(=O)[C@H](CC2CCCCC2)NC(=O)[C@H](CCN)NC1=O [Compound 3062] ({CH2CO}-Y(Carboxymethyl)[Phe(4-COOH)]DWV[Bip]E[Orn][dL][Dab][Cha]VSCG[AEEA][Orn][12Ado]-OH; thioether N-14)	33
CC(C)C[C@H]1NC(=O)[C@H](CCCN)NC(=O)[C@H](CCC(=O)O)NC(=O)[C@H](Cc2ccc(-c3ccccc3)cc2)NC(=O)[C@H](C(C)C)NC(=O)[C@H](Cc2c[nH]c3ccccc23)NC(=O)[C@H](CC(=O)O)NC(=O)[C@H](Cc2ccc(C(=O)O)cc2)NC(=O)[C@H](Cc2ccc(OCC(=O)O)cc2)NC(=O)CSC[C@@H](C(=O)N[C@H](CO)C(=O)NCCOCCOCC(=O)N[C@@H](CCCN)C(=O)NCCCCCCCCCCCC(=O)O)NC(=O)[C@H](CO)NC(=O)[C@H](C(C)C)NC(=O)[C@H](CC2CCCCC2)NC(=O)[C@H](CCN)NC1=O [Compound 3063] ({CH2CO}-Y(Carboxymethyl)[Phe(4-COOH)]DWV[Bip]E[Orn][dL][Dab][Cha]VSC[dS][AEEA][Orn][12Ado]-OH; thioether N-14)	13.4
CC(C)C[C@H]1NC(=O)[C@H](CCCN)NC(=O)[C@H](C(C)C)NC(=O)[C@H](Cc2ccc(-c3ccccc3)cc2)NC(=O)[C@H](C(C)C)NC(=O)[C@H](Cc2c[nH]c3ccccc23)NC(=O)[C@H](CC(=O)O)NC(=O)[C@H](Cc2ccc(C(=O)O)cc2)NC(=O)[C@H](Cc2ccc(OCC(=O)O)cc2)NC(=O)CSC[C@@H](C(=O)N[C@H](CO)C(=O)NCCOCCOCC(=O)N[C@@H](CCCN)C(=O)NCCCCCCCCCCCC(=O)O)NC(=O)[C@H](CO)NC(=O)[C@H](C(C)C)NC(=O)[C@H](CC2CCCCC2)NC(=O)[C@H](CCN)NC1=O [Compound 3064] ({CH2CO}-Y(Carboxymethyl)[Phe(4-COOH)]DWV[Bip]V[Orn][dL][Dab][Cha]VSC[dS][AEEA][Orn][12Ado]-OH; thioether N-14)	32.1
CC(C)C[C@H]1NC(=O)[C@H](CCCN)NC(=O)[C@H](C(C)C)NC(=O)[C@H](Cc2ccc(-c3ccccc3)cc2)NC(=O)[C@H](C(C)C)NC(=O)[C@H](Cc2csc3ccccc23)NC(=O)[C@H](CC(=O)O)NC(=O)[C@H](Cc2ccc(OCC(=O)O)cc2)NC(=O)[C@H](CCCCNC(=N)N)NC(=O)CSC[C@@H](C(=O)NCC(=O)NCCOCCOCC(=O)N[C@H](CCCN)C(=O)NCCCCCCCCCCC(=O)O)NC(=O)[C@H](CO)NC(=O)[C@H](C(C)C)NC(=O)[C@H](CC2CCCCC2)NC(=O)[C@H](CCN)NC1=O [Compound 3065] ({CH2CO}-[hArg]Y(Carboxymethyl)D[Bta]V[Bip]V[Orn][dL][Dab][Cha]VSCG[AEEA][dOrn][Aun]-OH; thioether N-14)	19.2
CC(C)C[C@H]1NC(=O)[C@H](CCCN)NC(=O)[C@H](C(C)C)NC(=O)[C@H](Cc2ccc(-c3ccccc3)cc2)NC(=O)[C@H](C(C)C)NC(=O)[C@H](Cc2csc3ccccc23)NC(=O)[C@H](CC(=O)O)NC(=O)[C@H](Cc2ccc(OCC(=O)O)cc2)NC(=O)[C@H](CCCCNC(=N)N)NC(=O)CSC[C@@H](C(=O)NCCOCCOCC(=O)N[C@@H](CCCN)C(=O)NCCCCCCCCCCC(=O)O)NC(=O)[C@H](CO)NC(=O)[C@H](C(C)C)NC(=O)[C@H](CC2CCCCC2)NC(=O)[C@H](CCN)NC1=O [Compound 3066] ({CH2CO}-[hArg]Y(Carboxymethyl)D[Bta]V[Bip]V[Orn][dL][Dab][Cha]VSC[AEEA][Orn][Aun]-OH; thioether N-14)	17.1
CC(C)C[C@H]1NC(=O)[C@H](CCCN)NC(=O)[C@H](C(C)C)NC(=O)[C@H](Cc2ccc(-c3ccccc3)cc2)NC(=O)[C@H](C(C)C)NC(=O)[C@H](Cc2csc3ccccc23)NC(=O)[C@H](CC(=O)O)NC(=O)[C@H](Cc2ccc(OCC(=O)O)cc2)NC(=O)[C@H](CCCCNC(=N)N)NC(=O)CSC[C@@H](C(=O)N[C@@H](CCCN)C(=O)NCCCCCCCCCCC(=O)O)NC(=O)[C@H](CO)NC(=O)[C@H](C(C)C)NC(=O)[C@H](CC2CCCCC2)NC(=O)[C@H](CCN)NC1=O [Compound 3067] ({CH2CO}-[hArg]Y(Carboxymethyl)D[Bta]V[Bip]V[Orn][dL][Dab][Cha]VSC[Orn][Aun]-OH; thioether N-14)	41
CC(C)C[C@H]1NC(=O)[C@H](CCCCN)NC(=O)[C@H](C(C)C)NC(=O)[C@H](Cc2ccc(-c3ccccc3)cc2)NC(=O)[C@H](C(C)C)NC(=O)[C@H](Cc2c[nH]c3ccccc23)NC(=O)[C@H](CC(=O)O)NC(=O)[C@H](Cc2ccc(OCC(=O)O)cc2)NC(=O)[C@H](CC(N)=O)NC(=O)CSC[C@@H](C(=O)NCCOCCOCC(=O)N[C@@H](CCCN)C(=O)NCCCCCCCCCCC(=O)O)NC(=O)[C@H](CO)NC(=O)[C@H](C(C)C)NC(=O)[C@H](CC2CCCCC2)NC(=O)[C@H](CCN)NC1=O [Compound 3070] ({CH2CO}-NY(Carboxymethyl)DWV[Bip]VK[dL][Dab][Cha]VSC[AEEA][Orn][Aun]-OH; thioether N-14)	5.1
CC(C)C[C@@H]1NC(=O)[C@H](CCN)NC(=O)[C@@H](CC(C)C)NC(=O)[C@H](CCCN)NC(=O)[C@H](C(C)C)NC(=O)[C@H](Cc2ccc(-c3ccccc3)cc2)NC(=O)[C@H](CC(C)C)NC(=O)[C@H](Cc2c[nH]c3ccccc23)NC(=O)[C@H](CC(=O)O)NC(=O)[C@H](Cc2ccc(OCC(=O)O)cc2)NC(=O)[C@H](Cc2ccc(OCC(=O)O)cc2)NC(=O)CSC[C@@H](C(=O)N[C@H](CCN)C(=O)NCCOCCOCC(=O)NCCCCCCCCCCC(=O)O)NC(=O)[C@H](CO)NC(=O)[C@H](C(C)C)CC1=O [Compound 3071] ({CH2CO}-Y(Carboxymethyl)Y(Carboxymethyl)DWL[Bip]V[Orn][dL][Dab][X2]SC[dDab][AEEA][Aun]-OH; thioether N-13)	17.2
